Reference: patent US10736829B2, “Use of certain hydroxybenzoic acid amides for masking unpleasant taste impressions” (SYMRISE AG, priority 2015, dated 2020)

How the values were obtained:
Assay type in all cases: in vivo
[1] = Masking of the bitter taste of whey protein hydrolysate solution, panel of experts (n=8), randomized duo-tests; conditions: base 3% (w/v) whey protein hydrolysate in water; 100 ppm compound 1; aroma 1.6% (w/v) in the combination
Experimental: The bitter masking effect of 2,4-dihydroxy-N-[(4-hydroxy-3-methoxy-phenyl)methyl]benzamide (compound 1) on the bitter taste of whey protein hydrolysate was tested in a panel of experts [n=8] for a solution of 3% (w/v) of a commercially available whey protein hydrolysate (BioZate 3 of the company Davisco) in randomized duo-tests. The perceived bitter taste was evaluated on a scale from 0 [not bitter] to 10 [extremely bitter]. For comparison, a combination of compound 1 with a usual bitter masking aroma was tested, to examine possible additive effects.

[2] = Masking of the bitter taste of peptides, panel of experts (n=15), randomized duo-tests: Arg-Pro; conditions: for Bitter taste peptide solution + 100 ppm compound: Arg-Pro 0.1% (w/v) in water, scale 0 (not bitter) to 10 (extremely bitter); for Reduction of bitterness (%): Arg-Pro 0.1% (w/v), 100 ppm compound, negative = less bitter
Experimental: (§1) The masking effect of 2,4-Dihydroxy-N-[(4-hydroxy-3-methoxy-phenyl)methyl]benzamide (compound 1) and N-[(4-hydroxy-3-methoxy-phenyl)methyl]-2,4-dimethoxy-benzamide (compound 5) on the bitter taste of peptides was examined in a panel of experts (n=15) in randomized duo-tests. Therefore, solutions of bitter peptides in water with or without the addition of the exemplary substances were tasted and the perceived bitter taste was evaluated on a scale from 0 (not bitter) to 10 (extremely bitter).

[3] = Masking of the bitter taste of peptides, panel of experts (n=15), randomized duo-tests: Glu-Leu-Leu (comparative example); conditions: for Reduction of bitterness (%): Glu-Leu-Leu 0.2% (w/v) (comparative peptide), 100 ppm compound, negative = less bitter; for Bitter taste peptide solution + 100 ppm compound: Glu-Leu-Leu 0.2% (w/v) in water (comparative peptide), scale 0 to 10
Experimental: as §1

[4] = Masking of the bitter taste of peptides; conditions: 100 ppm; compound 1: plurality of peptides, except Leu-Trp and Glu-Leu-Leu
Experimental: as §1

[5] = Masking of the bitter taste of peptides, panel of experts (n=15), randomized duo-tests: Leu-Trp (comparative example); conditions: for Reduction of bitterness (%): Leu-Trp 0.2% (w/v) (comparative peptide), 100 ppm compound, negative = less bitter; for Bitter taste peptide solution + 100 ppm compound: Leu-Trp 0.2% (w/v) in water (comparative peptide), scale 0 to 10
Experimental: as §1

[6] = Masking of the bitterness of a mixture of bitter amino acids, panel of experts (n=13), randomized duo-test with nose clip; conditions: 100 ppm sample; for Reduction of bitterness in % compared to the mixture of amino acids: negative = less bitter, positive = more bitter; for Bitter taste amino acid mixture + sample: scale 0 [not bitter] to 10 [extremely bitter], n=13
Experimental: The masking effect of hydroxybenzoic acid amides (compounds 1-4) to be preferably used according to the invention as well as a comparative substance (compound 5) on a mixture of bitter amino acids (2 g/l L-Isoleucine; 3.5 g/l L-Leucine; 1 g/l L-Phenylalanine; 0.7 g/l L-Tryptophan in water) was evaluated by an panel of experts (n=13) (Evaluation 0 [not bitter] up to 10 [extremely bitter]). The tasting was performed with a nose clip, to exclude olfactory influences, and in a randomized duo-test. The bitterness of the mixture of amino acids was evaluated by the panel by 4.98±0,31 on a scale from 0 to 10.

[7] = Masking of the bitter taste of peptides, panel of experts (n=15), randomized duo-tests: Tyr-Pro-Phe-Pro; conditions: for Bitter taste peptide solution + 100 ppm compound: Tyr-Pro-Phe-Pro 0.1% (w/v) in water, scale 0 to 10; for Reduction of bitterness (%): Tyr-Pro-Phe-Pro 0.1% (w/v), 100 ppm compound, negative = less bitter
Experimental: as §1

[8] = Masking of the bitter taste of peptides, panel of experts (n=15), randomized duo-tests: Trp-Trp-Trp; conditions: for Bitter taste peptide solution + 100 ppm compound: Trp-Trp-Trp 0.01% (w/v) in water, scale 0 to 10; for Reduction of bitterness (%): Trp-Trp-Trp 0.01% (w/v), 100 ppm compound, negative = less bitter
Experimental: as §1

Row | SMILES | Reduction of the bitter taste [%] [1] | Bitter taste peptide solution + 100 ppm compound [2] | Reduction of bitterness (%) [2] | Reduction of bitterness (%) [3] | Bitter taste peptide solution + 100 ppm compound [3] | Effect on the bitterness of the peptides (in words) [4] | Reduction of bitterness (%) [5] | Bitter taste peptide solution + 100 ppm compound [5] | Reduction of bitterness in % compared to the mixture of amino acids [6] | Bitter taste amino acid mixture + sample [6] | Bitter taste peptide solution + 100 ppm compound [7] | Reduction of bitterness (%) [7] | Bitter taste peptide solution + 100 ppm compound [8] | Reduction of bitterness (%) [8]
1 | COc1cc(CNC(=O)c2ccc(O)cc2O)ccc1O [compound 1, 2,4-Dihydroxy-N-[(4-hydroxy-3-methoxy-phenyl)methyl]benzamide] | −24.5% | 1.47 | −20.9% | −3.77% | 5.1 | clear reduction of the bitterness | −4% | 6.5 | −25.9% | 3.90 | 3.43 | −23.3% | 5.35 | −17.4%
2 | COc1cc(Cn2c(=O)oc3cc(O)cc(O)c3c2=O)ccc1O [compound 2, 5,7-Dihydroxy-3-[(4-hydroxy-3-methoxy-phenyl)methyl]-1,3-benzoxazin-2,4-dione] | – | – | – | – | – | – | – | – | −30.3% | 3.20 | – | – | – | –
3 | COc1cc(CNC(=O)c2ccc(O)cc2)ccc1O [compound 3, 4-Hydroxy-N-[(4-hydroxy-3-methoxy-phenyl)methyl]benzamide] | – | – | – | – | – | – | – | – | −14.1% | 4.11 | – | – | – | –
4 | COc1cc(CNC(=O)c2ccccc2O)ccc1O [compound 4, 2-Hydroxy-N-[(4-hydroxy-3-methoxy-phenyl)methyl]benzamide] | – | – | – | – | – | – | – | – | −7.7% | 4.74 | – | – | – | –
5 | COc1ccc(C(=O)NCc2ccc(O)c(OC)c2)c(OC)c1 [compound 5, N-[(4-hydroxy-3-methoxy-phenyl)methyl]-2,4-dimethoxy-benzamide, reference compound] | – | 2.05 | 10.81% | 5.66% | 5.6 | not able to achieve a reduction of the bitterness | 4.41% | 7.1 | 22.8% | 6.86 | 4.68 | 4.46% | 6.40 | −1.08%
